{
  "source": "paper PMC5084761",
  "about": "“Crisaborole Topical Ointment, 2% in Patients Ages 2 to 17 Years with Atopic Dermatitis: A Phase 1b, Open‐Label, Maximal‐Use Systemic Exposure Study” (Pediatric Dermatology, 2016)",
  "key": {"[1]": {"tested_on": "children and adolescents with mild to moderate AD", "test": "Efficacy: ISGA, treatment success, AD signs and symptoms, treatable percentage of BSA", "assay_type": "in vivo, human (patients ages 2 to 17 years)", "settings": "for Percentage change from baseline in treatable percentage of BSA, mean ± SD: after 4 wks", "protocol": "Secondary assessments included treatment success, defined as an Investigator Static Global Assessment (ISGA) score of 1 or less (clear or almost clear) with a two‐grade improvement or more from baseline. The proportion of patients achieving an ISGA of 0 (clear) or 1 (almost clear) was also assessed. Improvement from baseline in AD signs and symptoms of erythema, excoriation, exudation, lichenification, and pruritus was evaluated using a 4‐point scale ranging from 0 (none) to 3 (severe). Efficacy assessments were conducted at baseline and days 5, 8, 15, 22, and 29. Change from baseline in treatable percentage of BSA was assessed at day 29 and included all AD lesions identified at baseline."}, "[2]": {"test": "Plasma pharmacokinetics after topical application of crisaborole topical ointment, 2% BID under maximal-use conditions (HPLC tandem mass spectrometry, noncompartmental)", "settings": "for Cmax: 3 mg/cm^2, C max", "from_the_text": "(§1) This was a phase 1b, multicenter, open‐label, maximal‐use study of crisaborole topical ointment, 2% applied twice daily (BID). The study included a PK and safety phase (dose application in clinic from day 1 through the morning dose on day 9) and a non‐PK safety phase (at‐home dose application from the evening dose on day 9 through day 28). […] The primary objective was to evaluate the systemic exposure, PK, and safety of crisaborole topical ointment, 2% when applied under maximal‐use conditions in children and adolescents 2 to 17 years of age.\n(§2) Crisaborole topical ointment, 2% was applied BID to all treatable AD‐affected areas at an intended dose of 3 mg/cm^2. The per‐application dosage was calculated in grams at baseline for each patient based on total body surface area (BSA) and treatable percentage of BSA (percentage of AD‐involved skin excluding scalp and venous access areas). During the PK phase, the per‐application dosage remained fixed at the baseline level and was applied BID, with the evening application occurring 8 to 12 hours after the morning application.\n(§3) The primary study endpoints were PK and safety of crisaborole topical ointment, 2% under maximal‐use conditions. PK profiles were developed for crisaborole and its major oxidative metabolites AN7602 and AN8323 based on plasma samples obtained on days 1 and 8. Calculated PK parameters included area under the curve (AUC), maximum plasma concentration (C max), time to C max (T max), and terminal half‐life (t 1/2), assessed on days 1 and 8.\n(§4) Plasma PK samples were evaluated for crisaborole, AN7602, and AN8323 using a validated high‐performance liquid chromatography tandem mass spectrometry assay and analyzed using analysis of variance (ANOVA). Descriptive PK parameters were determined using standard noncompartmental methods based on concentration‐versus‐time curves for each patient.\n(§5) If no statistically significant differences were observed using this model, the PK analysis was performed for all study patients."}, "[3]": {"settings": "in vivo", "from_the_text": "as §1, §2, §3, §4, §5"}},
  "note": "Like-named read-outs stand apart in the source and are kept apart here.",
  "data": [
    {"smiles": "N#Cc1ccc(Oc2ccc3c(c2)COB3O)cc1", "note": "[Crisaborole, crisaborole]", "values": [
      {"measurement": "Percentage change from baseline in treatable percentage of BSA, mean ± SD", "setting": "[1]; cohort 1", "result": "−86.6 ± 18.6", "unit": "percentage"},
      {"measurement": "Percentage change from baseline in treatable percentage of BSA, mean ± SD", "setting": "[1]; cohort 2", "result": "−72.8 ± 24.4", "unit": "percentage"},
      {"measurement": "Percentage change from baseline in treatable percentage of BSA, mean ± SD", "setting": "[1]; cohort 3", "result": "−73.0 ± 21.7", "unit": "percentage"},
      {"measurement": "Percentage change from baseline in treatable percentage of BSA, mean ± SD", "setting": "[1]; total (N = 34)", "result": "−77.7 ± 22.1", "unit": "percentage"},
      {"measurement": "Day 29 treatable percentage of BSA, mean ± SD (range)", "setting": "[1]; cohort 1, ages 12–17 yrs (n = 12), baseline 35.8 ± 11.3", "result": "5.7 ± 8.6 (0–29) percentage of BSA"},
      {"measurement": "Day 29 treatable percentage of BSA, mean ± SD (range)", "setting": "[1]; cohort 2, ages 6–11 yrs (n = 12), baseline 54.9 ± 19.3", "result": "16.3 ± 14.5 (0–40) percentage of BSA"},
      {"measurement": "Day 29 treatable percentage of BSA, mean ± SD (range)", "setting": "[1]; cohort 3, ages 2–5 yrs (n = 10), baseline 56.9 ± 23.0", "result": "18.6 ± 18.1 (0–46) percentage of BSA"},
      {"measurement": "reduction of the mean percentage of skin with AD lesions", "setting": "[1]; overall, as summarised in discussion", "result": "~ 75%"},
      {"measurement": "Day 29 treatable percentage of BSA, mean ± SD (range)", "setting": "[1]; total (N = 34), baseline 48.7 ± 20.2", "result": "13.2 ± 14.7 (0–46) percentage of BSA"},
      {"measurement": "Tmax", "setting": "[2]; human, plasma, topical, 3 mg/cm^2", "result": 3, "unit": "h"},
      {"measurement": "AUC(0-t)", "setting": "[2]; human, plasma, topical, 3 mg/cm^2, AUC0–12, mean ± SD, plasma, day 1, all patients (n = 32)", "result": "759 ± 730", "unit": "ng·h/mL"},
      {"measurement": "AUC(0-t)", "setting": "[2]; human, plasma, topical, 3 mg/cm^2, AUC0–12, mean ± SD, plasma, day 8, all patients (n = 32)", "result": "949 ± 1240", "unit": "ng·h/mL"},
      {"measurement": "AUC(0-t)", "setting": "[2]; human, plasma, topical, 3 mg/cm^2, AUC0–24, mean ± SD, plasma, day 1, all patients (n = 29)", "result": "833 ± 694", "unit": "ng·h/mL"},
      {"measurement": "AUC(0-t)", "setting": "[2]; human, plasma, topical, 3 mg/cm^2, AUC0–24, mean ± SD, plasma, day 8, all patients (n = 32)", "result": "1320 ± 1330", "unit": "ng·h/mL"},
      {"measurement": "AUC(0-t)", "setting": "[2]; human, plasma, topical, 3 mg/cm^2, AUC0–T, mean ± SD, plasma, day 1, all patients (n = 34)", "result": "863 ± 759", "unit": "ng·h/mL"},
      {"measurement": "AUC(0-t)", "setting": "[2]; human, plasma, topical, 3 mg/cm^2, AUC0–T, mean ± SD, plasma, day 8, all patients (n = 33)", "result": "1320 ± 1310", "unit": "ng·h/mL"},
      {"measurement": "Cmax", "setting": "[2]; human, plasma, topical, mean ± SD, plasma, day 1, all patients (n = 34)", "result": "111 ± 113", "unit": "ng/mL"},
      {"measurement": "Cmax", "setting": "[2]; human, plasma, topical, mean ± SD, plasma, day 8, all patients (n = 33)", "result": "127 ± 196", "unit": "ng/mL"},
      {"measurement": "systemic exposure (in words)", "setting": "[2]; maximal-use conditions, increased with treatable percentage of BSA", "result": "minimal"},
      {"measurement": "systemic accumulation in plasma (in words)", "setting": "[2]; over 8 days of dosing", "result": "minimal systemic accumulation"},
      {"measurement": "time by which steady state was reached", "setting": "[2]; plasma, BID dosing", "result": "≤ 8", "unit": "days"},
      {"measurement": "T max, median (range)", "setting": "[2]; plasma, day 1, all patients (n = 34), ointment 2% at 3 mg/cm^2", "result": "3.00 (3–12) hours"}
    ]},
    {"smiles": "N#Cc1ccc(Oc2ccc(O)c(CO)c2)cc1", "note": "[AN7602]", "values": [
      {"measurement": "systemic exposure (in words)", "setting": "[3]", "result": "minimal"}
    ]}
  ]
}
